The text below walks through data of publication PMC5577376 (Nature chemical biology, 2017).

Test [1] deals with cullin neddylation in HCC95 cells. The test can be described thus: Cullin neddylation immunoblot, HCC95. Format: cell-based, human. To be noted: for Effect on levels of neddylated cullins: HCC95, 10 μM dosed at 0 and 24 hours, harvested at 48 hours.
Test [2] addresses DCN1 (PONY domain) binding to N-terminally acetylated UBE2M peptide (Homo sapiens, UniProt Q96GG9).
For test [3], the target named is DCN1-dependent neddylation from AcUBE2M to CUL2CTD-RBX1 (Homo sapiens, UniProt Q96GG9). The class given is biochemical.
DCN1-dependent neddylation from AcUBE2M to CUL2CTD-RBX1, sequence (Q96GG9 60-248 limits assumed): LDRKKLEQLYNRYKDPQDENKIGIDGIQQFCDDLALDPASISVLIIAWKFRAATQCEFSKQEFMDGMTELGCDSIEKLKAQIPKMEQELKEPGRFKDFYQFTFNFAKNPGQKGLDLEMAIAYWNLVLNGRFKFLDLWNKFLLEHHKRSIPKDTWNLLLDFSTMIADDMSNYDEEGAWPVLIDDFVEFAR
The target in a further test is DCN2 (Homo sapiens, UniProt Q6PH85). The test can be described thus: Pulse-chase neddylation assay with DCN2. To be noted: 10 μM. Format: biochemical.
DCN2, sequence (Q6PH85 60-248 limits assumed): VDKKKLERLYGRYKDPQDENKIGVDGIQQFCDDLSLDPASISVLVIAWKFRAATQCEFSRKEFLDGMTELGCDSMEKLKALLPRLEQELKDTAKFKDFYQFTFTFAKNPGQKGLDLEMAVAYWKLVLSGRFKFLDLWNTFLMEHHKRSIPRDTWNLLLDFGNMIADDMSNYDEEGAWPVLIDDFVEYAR
A further test concerns the target T1, DCN3 (Homo sapiens, UniProt Q8IWE4).
T1 sequence (Q8IWE4 86-278 limits assumed): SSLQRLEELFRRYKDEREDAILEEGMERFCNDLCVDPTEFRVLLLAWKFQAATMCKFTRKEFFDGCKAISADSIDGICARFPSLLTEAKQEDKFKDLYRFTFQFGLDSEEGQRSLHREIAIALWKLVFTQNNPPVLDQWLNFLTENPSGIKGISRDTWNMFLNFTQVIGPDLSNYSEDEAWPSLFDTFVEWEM
The test can be described thus: Pulse-chase neddylation assay with DCN3. Format: biochemical.

The target of a further test is T2, DCN4 (Homo sapiens, UniProt Q92564).
T2 sequence (Q92564 101-287 limits assumed): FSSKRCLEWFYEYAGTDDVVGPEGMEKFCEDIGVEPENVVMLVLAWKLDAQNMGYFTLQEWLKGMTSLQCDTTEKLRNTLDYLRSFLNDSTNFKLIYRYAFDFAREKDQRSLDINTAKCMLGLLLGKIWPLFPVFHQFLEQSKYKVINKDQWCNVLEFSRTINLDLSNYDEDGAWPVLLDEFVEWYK
The test can be described thus: Pulse-chase neddylation assay with DCN4. Format: biochemical.

The target in a further test is T3, DCN5 (Homo sapiens, UniProt Q9BTE7).
T3 sequence (Q9BTE7 46-232 limits assumed): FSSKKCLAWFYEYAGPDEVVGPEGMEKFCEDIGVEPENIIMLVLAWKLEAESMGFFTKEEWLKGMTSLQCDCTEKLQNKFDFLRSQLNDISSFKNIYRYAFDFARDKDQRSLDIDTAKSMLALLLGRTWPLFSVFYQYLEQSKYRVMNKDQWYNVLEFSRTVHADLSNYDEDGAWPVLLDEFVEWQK
The test is described as follows: Pulse-chase neddylation assay with DCN5. The class given is biochemical.

For test [4], the system named is N-acetyl-UBE2M interactions in 293T cells. The test is described as follows: AP-MS TMT interaction proteomics of UBE2M. Format: cell-based, human.
Test [5] relates to levels of CRL substrates in HCC95 cells. The test is described as follows: Immunoblot of cullin-RING ligase substrates, HCC95. Format: cell-based, human.
In test [6] the test system is anchorage independent growth of HCC95 cells. The test can be described thus: Soft agar colony formation assay. To be noted: 10 μM. Format: cell-based, human.
Test [7] concerns DCN1-independent NEDD8 ligation from AcUBE2M to CUL2CTD. The test is described as follows: Pulse-chase assay, DCN1-independent neddylation. The class given is biochemical, human.
A further test has as its target DCN1 (Homo sapiens, UniProt Q96GG9). The test is described as follows: Covalent adduct formation by LC-TOF mass spectrometry, DCN1. The class given is binding. Conditions: 30 μM PONY domain, 60 μM compound, overnight / 24-hour incubation.
Another test deals with DCN2 PONY domain (Homo sapiens, UniProt Q6PH85). The test is described as follows: Covalent adduct formation by TOF mass spectrometry, DCN2. Format: binding. To be noted: 30 μM PONY domain, 60 μM compound, overnight.
DCN2 PONY domain, sequence (Q6PH85 60-248 limits assumed): as the sequence (Q6PH85 60-248 limits assumed) above
The target in a further test is T4, DCN3 PONY domain (Homo sapiens, UniProt Q8IWE4).
T4 sequence (Q8IWE4 86-278 limits assumed): T1 sequence (Q8IWE4 86-278 limits assumed)
The test is described as follows: Covalent adduct formation by TOF mass spectrometry, DCN3. The class given is binding. Conditions: 30 μM PONY domain, 60 μM compound, overnight.

In another test the target is T5, DCN4 PONY domain (Homo sapiens, UniProt Q92564).
T5 sequence (Q92564 101-287 limits assumed): T2 sequence (Q92564 101-287 limits assumed)
The test is described as follows: Covalent adduct formation by TOF mass spectrometry, DCN4. Format: binding. Conditions: 30 μM PONY domain, 60 μM compound, overnight.

The target of the next test is T6, DCN5 PONY domain (Homo sapiens, UniProt Q9BTE7).
T6 sequence (Q9BTE7 46-232 limits assumed): T3 sequence (Q9BTE7 46-232 limits assumed)
The test is described as follows: Covalent adduct formation by TOF mass spectrometry, DCN5. The class given is binding. To be noted: 30 μM PONY domain, 60 μM compound, overnight.

The target of the next test is C115A DCN1, C115G DCN1 (Homo sapiens, UniProt Q96GG9, C115A). The test is described as follows: Covalent adduct formation by TOF mass spectrometry, DCN1 Cys115 mutants. Format: binding.
C115A DCN1, C115G DCN1, sequence (Q96GG9 62-259 C115A): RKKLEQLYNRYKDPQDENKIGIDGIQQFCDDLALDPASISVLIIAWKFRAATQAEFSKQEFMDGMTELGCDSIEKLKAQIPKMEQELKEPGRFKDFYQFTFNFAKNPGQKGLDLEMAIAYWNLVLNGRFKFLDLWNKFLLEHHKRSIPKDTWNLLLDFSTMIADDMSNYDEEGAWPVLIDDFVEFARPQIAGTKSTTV
The target in test [8] is UBE2M-DCN1 interaction in 293T cells (Homo sapiens, UniProt Q96GG9). The test is described as follows: Co-immunoprecipitation of DCN1 with UBE2M-FLAG-HA in cells. Format: cell-based. To be noted: treated 24 hours.
UBE2M-DCN1 interaction in 293T cells, sequence (Q96GG9 whole entry): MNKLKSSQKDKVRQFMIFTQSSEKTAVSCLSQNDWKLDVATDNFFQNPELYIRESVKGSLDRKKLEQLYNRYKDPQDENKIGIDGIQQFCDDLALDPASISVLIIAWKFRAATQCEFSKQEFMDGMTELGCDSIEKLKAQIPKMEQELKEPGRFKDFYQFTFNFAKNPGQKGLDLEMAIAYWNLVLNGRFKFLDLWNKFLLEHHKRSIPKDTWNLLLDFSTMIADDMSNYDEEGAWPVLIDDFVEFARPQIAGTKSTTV
A further test has as its target NEDD8 E1 enzyme. Conditions: read-out: biochemical IC50; cited from earlier work.
Test [9] deals with cellular neddylation / ubiquitination. Conditions: cited from earlier work.
Setting [10] is: even at concentrations of 100 μM.

Entries after “also recorded” stand apart in the source; their conditions may differ.

DCN1 (PONY domain) binding to N-terminally acetylated UBE2M peptide, sequence (Q96GG9 60-248 limits assumed): as the sequence (Q96GG9 60-248 limits assumed) above
DCN1, sequence (Q96GG9 60-248 limits assumed): as above

Regarding `CCCC(C)N1CCC(N(Cc2ccccc2NC(=O)CC)C(=O)Nc2cccc(C(F)(F)F)c2)CC1` (stereo not drawn) [NAcM-COVCTRL, N-(2-((1-(1-(pentan-2-yl)piperidin-4-yl)-3-(3-(trifluoromethyl)phenyl)ureido)methyl)phenyl)propionamide], the “Effect on levels of neddylated cullins” value in test [1] is “relatively reduced potency”.

Regarding `CCCCN1CCC(N(Cc2ccccc2)C(=O)Nc2ccc(Cl)c(Cl)c2)CC1` [NAcM-OPT, 1-benzyl-1-(1-butylpiperidin-4-yl)-3-(3,4-dichlorophenyl)urea], the “Enhanced potency relative to NAcM-HIT, TR-FRET” value in test [2] came out at 100 fold. Moreover, the “Increased potency toward the neddylation reaction relative to NAcM-HIT” value in [3] is 25 fold. Further, the “Inhibition of DCN2-stimulated neddylation” value at DCN2 is “inhibited”. Further, the “Activity toward DCN3” value at DCN3 (10 μM) is recorded as “no activity”. Further, the “Activity toward DCN4” value at DCN4 (10 μM) is listed as “no activity”. Moreover, the “Activity toward DCN5” value at DCN5 (10 μM) is “no activity”. In test [4], the “Fold decrease in UBE2M binding: CUL3” value was determined as 1.9 fold, the “Fold decrease in UBE2M binding: CUL5” value turned out to be 3.2 fold and the “Fold decrease in UBE2M binding: DCN1” value is reported as “≈ 8 fold”. Further, the “Effect on levels of neddylated cullins” value in test [1] was “reduced levels of neddylated cullins”. In [5] (HCC95, 10 μM), the “Levels of CRL substrates” value is reported as “Neither NAcM-OPT treatment nor DCN1 shRNA stabilizes”. Moreover, the “Growth / colony formation of HCC95 cells in soft agar” value in test [6] is given as “blocks growth”.

For the molecule `O=C(Nc1cccc(C(F)(F)F)c1)NC1CCN(Cc2ccccc2)CC1` [NAcM-HIT, 1-(1-benzylpiperidin-4-yl)-3-(3-(trifluoromethyl)phenyl)urea], the “Inhibition of DCN1-independent NEDD8 ligation” value in test [7] is on record as “did not inhibit”.

For `C=CC(=O)Nc1ccccc1CN(C(=O)Nc1cccc(C(F)(F)F)c1)C1CCN(C(C)CCC)CC1` (stereo not drawn) [NAcM-COV, N-(2-((1-(1-(pentan-2-yl)piperidin-4-yl)-3-(3-(trifluoromethyl)phenyl)ureido)methyl)phenyl)acrylamide], the “Potency increase by electrophile, NAcM-COV versus NAcM-COVCTRL, TR-FRET” value in [2] is reported as over 30 fold. Besides, in test [3], the “Potency increase by electrophile, NAcM-COV versus NAcM-COVCTRL, neddylation” value is on record as 2.5 fold. Further, the “Activity towards DCN3” value on DCN3 (50 μM) is “Partial activity”. Moreover, the “Activity towards DCN4” value at DCN4 (50 μM) is listed as “Partial activity”. Besides, the “Inhibition of DCN5” value on DCN5 is “lack of inhibition”. Also, the “Covalent adduct formation with DCN1” value at DCN1 was “most effective; also recorded: corresponded to adducts”. Besides, at DCN2 PONY domain, the “Covalent adduct formation with DCN2” value was “corresponded to adducts”. The “Covalent adduct formation with DCN3” value at DCN3 PONY domain was “corresponded to adducts”. The “Covalent adduct formation with DCN4” value at DCN4 PONY domain was “Both modified and unmodified forms”. For the same molecule, at DCN5 PONY domain, the “Covalent adduct formation with DCN5” value is reported as “no evidence of covalent linkage”. At C115A DCN1, C115G DCN1, the “Covalent adduct formation with DCN1 Cys115 replaced by Ala or Gly” value is reported as “prevented covalent adduct formation”. Besides, the “Effect on levels of neddylated cullins” value in test [1] was “reduced levels of neddylated cullins; also recorded: most potent inhibition”. The “Growth / colony formation of HCC95 cells in soft agar” value in [6] is “blocks growth”.

Consider `CCCCN1CCC(N(Cc2ccccc2)C(=O)Nc2cccnc2)CC1` [NAcM-NEG, 1-benzyl-1-(1-butylpiperidin-4-yl)-3-(pyridin-3-yl)urea], for which the “Effect on DCN1-UBE2M interaction by TR-FRET” value in test [2] (setting [10]) is recorded as “no effect”. The “Effect on neddylation by enzyme assays” value in test [3] (setting [10]) is recorded as “no effect”. For the same molecule, the “Co-precipitation of DCN1 with UBE2M” value in test [8] is recorded as “interaction was observed”. Moreover, the “Effect on levels of neddylated cullins” value in test [1] is on record as “no effect”.

As to `NS(=O)(=O)OC[C@@H]1C[C@@H](n2ccc3c(N[C@H]4CCc5ccccc54)ncnc32)C[C@@H]1O` [MLN4924], in test [1] (single dose, 1 μM), the “Effect on neddylation in cells” value is listed as “eliminates all neddylation”. In addition, in [5] (HCC95, MLN4924 1 μM), the “Levels of CRL substrates” value is given as “high-level accumulation”. At NEDD8 E1 enzyme, the half-inhibitory concentration (IC50) was 5 nM. In test [9], the “concentration at which cell based activity is penetrant” value was 0.3 to 1 µM. The “Reduction of total cellular ubiquitination” value in test [9] (total blockade of neddylation) was 10–20%.
